Reference: US20180149652A1, “ELECTRICAL CELL-SUBSTRATE IMPEDANCE SENSOR (ECIS)” (priority 2018, published 2018)

Columns and labels:
[1] = test system: tubulin assemblies of MCF-7 cells; assay: Confocal microscopy of tubulin assemblies of MCF-7 cells; format: cell-based, human; details: ABZ 2.1 nano-moles per liter, PTX 0.1 nano-moles per liter
Protocol: In addition, an un-treated control sample was prepared as reference for comparison. Then, samples were washed with PBS and permeabilized with microtubule stabilizing buffer [80 mM PIPES-KOH (pH 6.8), 5 mM EGTA, and 1 mM MgCl2 containing 0.5% Triton X-100] for 5 min at room temperature before being fixed with chilled absolute methanol for 10 min at −20° C. Thereafter, the fixed cells were washed and incubated with monoclonal mouse anti-α-tubulin antibody (Sigma Co.) for 1 hour at room temperature followed by incubation with FITC-conjugated antimouse IgG antibody (Santa Cruz Biotechnology). The stained cells were mounted with Vectashield (Vector Laboratories, Burlingame, Calif.) and observed by confocal microscopy.

[2] = test system: MCF-7 cells; assay: SiNW-ECIS impedance and capacitance response of MCF-7 cells to antitubulin drugs; format: cell-based, human; details: MCF-7 on SiNW electrodes, PTX 0.1 nano-moles per liter; for normalized capacitance change versus control sample / normalized impedance change versus control sample: 2 hours (T1) after drug incubation; for normalized capacitance change versus control sample / normalized impedance change versus control sample / change in electrical impedance with respect to control sample / norm of capacitive changes, control sample more than drug value / change of norm in impedance of treated cells, T1 vs. T2: ABZ 2.1 nano-moles per liter; for change in electrical impedance with respect to control sample / norm of capacitive changes, control sample more than drug value: 6 hours (T2) after drug incubation
Protocol: In this example, the diagnostic response of cells membrane to extremely low dose of antitubulin drugs is investigated. Initially, MCF-7 cell lines, isolated from grade I human breast tumors, were obtained from the National Cell Bank of Iran (Pasteur Institute). Then, cells were maintained in a CO2 incubator (37° C., 5% CO2) in RPMI-1640 medium supplemented with 5% fetal bovine serum, and 1% penicillin/streptomycin. The fresh medium was replaced every other day. Then, the cultured cells were dropped on the surface of the SiNW-ECIS, designed and fabricated pursuant to teachings of the present application. Prior to each experiment, cells were trypsinized to be detached from the substrate and resuspended on the SiNW surface. To minimize the effect of trypsinization, the procedure may last for less than 4 minutes at room temperature of about 20° C. The samples were held in an incubator for about 4 hours to achieve cells attachment on the SiNWs. Thereafter, the ABZ drug with low concentrations of about 2.1 nano-moles per liter and the PTX drug with low concentrations of about 0.1 nano-moles per liter were added to individual samples. Finally, the signal recording and biological assays were investigated about 2 hours and 6 hours after the drug treatment (6 hours and 10 hours after the beginning of culturing process).
Referring to FIGS. 12A-12G, comparative normalized diagrams of impedance (designated by ΔZ% and represented by solid black lines) and capacitance changes (designated by ΔC% and represented by dashed grey lines) are illustrated for MCF-7 cells seeded on SiNW electrodes after treating by 2.1 nano-moles per liter of ABZ and 0.1 nano-moles per liter of PTX. The time interval between the drug incubation and the signal extraction are 2 hours (designated by T1) and 6 hours (designated by T2). In addition, the same diagrams are plotted for control sample prepared with no drug treatment stage.
According to the method described in the present example, the samples were maintained in an incubator so that the signal extraction was repeated 10 hours after cells dropping (6 hours after drug incubation for treated samples) to monitor the time evolution of drug induced MT polymerization/depolymerization on bioelectrical response of the membrane.

[3] = between 2 hours (T1) and 6 hours (T2) after drug incubation

Compound | spindle / microtubule appearance in confocal image ([1]; MCF-7, 2 hours after treatment) | spindle / microtubule appearance in confocal image ([1]; MCF-7, 6 hours after treatment) | normalized capacitance change versus control sample [2] | normalized impedance change versus control sample [2] | change in electrical impedance with respect to control sample [2] | norm of capacitive changes, control sample more than drug value [2] | change of norm in impedance of treated cells, T1 vs. T2 [2, 3] | time dependent variation in capacitive behavior, T1 vs. T2 [2, 3]
CCCSc1ccc2nc(NC(=O)OC)[nH]c2c1 [ABZ, Albendazole] | abnormally reduced numbers of spindles or monopolar (monoaster) spindles | still the monoastered MTs are observable | 70% | 25% | about 90% | about 90% | about 60% | –
CC(=O)O[C@H]1C(=O)[C@@]2(C)[C@H]([C@H](OC(=O)c3ccccc3)[C@]3(O)C[C@H](OC(=O)[C@H](O)[C@@H](NC(=O)c4ccccc4)c4ccccc4)C(C)=C1C3(C)C)[C@]1(OC(C)=O)CO[C@@H]1C[C@@H]2O [PTX, Paclitaxel] | aggregated spindles | increased aggregation in MT spindles is noticeable | about 60% | about 50% | about 30% | ~75% | 15% | about 85%
